# Laboratory results as given in EP1388586A2, “Identification of broadly reactive DR restricted epitopes” (priority 1998, dated 1999).
# Read-outs that look alike come from different tables or passages of the source. Square brackets hold non-standard residues; d marks the D form. Ends that are not written are not given here. Peptide text beside a SMILES is read from it.
# Columns and labels:
# [1] = target: T1, DRB1*0101 (DR1) (Homo sapiens, UniProt P01903+P01911, A100R/D57E/F55L/F60I/F76Y/I96L/L162R/M171V/P40L/Q125E/R42F/V115G/Y59C); experiment: Class II peptide-binding assay, DR1;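 further: competition assay: unlabeled test peptides inhibit binding of a radiolabeled probe peptide to purified DR, with half-maximal inhibition taken as an approximate dissociation constant Kd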
# T1 construct: used as sources of human HLA class II molecules; endogenous in cells; host or cells: LG2 (EBV-transformed homozygous B cell line)
# [2] = target: T2, DRB5*0101 (DR2w2a) (Homo sapiens, UniProt P01903+Q30154); experiment: Class II peptide-binding assay, DR2w2a (DR2w2B2);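 further: competitive binding assay: unlabeled peptide inhibiting binding of a radiolabeled probe peptide to purified DR molecules at pH 7.0, IC50 approximating Kd, lower means stronger binding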
# T2 construct: used as sources of human HLA class II molecules; endogenous in cells; host or cells: GM3107 (EBV-transformed homozygous B cell line)
# [3] = target: T3, DRB1*0301 (DR3w17) (Homo sapiens, UniProt P01903+P01911, A100K/A102G/A103R/A169T/F55Y/I96L/K41T/L162R/M171V/P40S/Q125H/Q178H/Q39Y/R42S/S66N/T106N/T262R/W38E/Y61H); experiment: Class II peptide-binding assay, DR3 (pH 4.5);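 further: unlabeled peptide competing with a radiolabeled probe peptide for binding to affinity-purified HLA-DR3, IC50 regarded as an approximation of Kd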
# T3 construct: used as sources of human HLA class II molecules; endogenous in cells; host or cells: MAT (EBV-transformed homozygous B cell line)
# T3 sequence (P01903 26-254, other chains not shown): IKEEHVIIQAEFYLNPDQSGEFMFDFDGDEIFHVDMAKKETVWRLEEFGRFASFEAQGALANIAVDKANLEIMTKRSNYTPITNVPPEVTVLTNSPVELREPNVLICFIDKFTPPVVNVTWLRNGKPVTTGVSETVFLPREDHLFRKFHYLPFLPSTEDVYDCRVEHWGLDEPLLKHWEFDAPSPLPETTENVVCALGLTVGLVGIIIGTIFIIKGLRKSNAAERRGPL
# [4] = target: T4, DRB1*0401 (DR4w4) (Homo sapiens, UniProt P01903+P01911, A100K/A169T/F76Y/I96L/K127E/L162R/M171V/N62H/P40V/Q125Y/R42H/S133A/S149N/S66Y/V115G/V209L/W38E); experiment: Class II peptide-binding assay, DR4w4;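 further: unlabeled test peptides compete with a radiolabeled probe peptide for binding to affinity-purified HLA-DR, with DR amount titrated to capture a small fraction of label, IC50 approximating Kd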
# T4 construct: used as sources of human HLA class II molecules; endogenous in cells; host or cells: PREISS (EBV-transformed homozygous B cell line)
# [5] = target: T5, DRB10404 (DR4w14) (Homo sapiens, UniProt P01903+P01911, A100R/A169T/F76Y/I96L/K127E/L162R/M171V/N62H/P40V/Q125Y/R42H/S133A/S149N/S66Y/V209L/W38E); experiment: Class II peptide-binding assay, DR4w14;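 further: unlabeled peptides compete with a radiolabeled probe for binding to affinity-purified HLA-DR, neutral pH, class II amount titrated to bind a small fraction of label, IC50 approximates Kd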
# T5 construct: used as sources of human HLA class II molecules; endogenous in cells; host or cells: BIN40 (EBV-transformed homozygous B cell line)
# Method: Class II peptide-binding assays. […] These assays were chosen as to be representative of the most common DR alleles.
# In appropriate stoichiometric conditions, the IC50 of an unlabeled test peptide to the purified DR is a reasonable approximation of the affinity of interaction (Kd). Peptides were tested in two to four completely independent experiments. […] Final detergent concentration in the incubation mixture was 0.05% Nonidet P-40. Assays were performed at pH 7.0 with the exception of DR3, which was performed at pH 4.5, and DRw53, which was performed at pH 5.0.
# All subsequent inhibition and direct binding assays were the performed using these class II concentrations.
# [6] = target: T6, DRB1*1101 (DR5w11) (Homo sapiens, UniProt P01903+P01911, A100R/A169T/A87E/I96F/K41T/L162R/M171V/P40S/Q125H/Q178H/Q39Y/Q99D/R42S/S66Y/T262R/V115G/W38E); experiment: Class II peptide-binding assay, DR5w11;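 further: competition by unlabeled test peptide against iodinated probe peptide binding to affinity-purified HLA-DR, class II amount titrated beforehand, half-maximal inhibitory concentration read as approximate Kd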
# T6 construct: used as sources of human HLA class II molecules; endogenous in cells; host or cells: SWEIG (EBV-transformed homozygous B cell line)
# T6 sequence (P01903 26-254, other chains not shown): as above
# [7] = target: DRB1*0701 (DR7) (Homo sapiens, UniProt P01903+P01911, A100R/A102G/A103Q/D57E/D86V/E43K/F76Y/K127E/L162R/M171V/P40G/Q125H/Q99D/R33Q/R42Y/R54Q/S133A/S66F/T210M/V115G/Y107V/Y59L/Y89S); experiment: Class II peptide-binding assay, DR7; conditions: Table VIII;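 further: unlabeled peptides compete with an iodinated probe peptide for binding to affinity-purified HLA-DR at neutral pH, DR amount titered to bind a small tracer fraction, IC50 approximating Kd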
# [8] = read-out: DR1 nM, Table VIII, In IC50 Format
# [9] = read-out: DR2w2B2 nM, Table VIII, In IC50 Format
# [10] = read-out: DR3 nM, Table VIII, In IC50 Format
# [11] = read-out: DR4w4 nM, Table VIII, In IC50 Format
# [12] = read-out: DR4w14 nM, Table VIII, In IC50 Format
# [13] = read-out: DR5w11 nM, Table VIII, In IC50 Format
# [14] = read-out: DR7 nM, In IC50 Format
# [15] = read-out: In IC50 Format DR1, Table VIII
# [16] = read-out: In IC50 Format DR2w2β2, Table VIII
# [17] = read-out: In IC50 Format DR3, Table VIII
# [18] = read-out: In IC50 Format DR4w4, Table VIII
# [19] = read-out: In IC50 Format DR4w14, Table VIII
# [20] = read-out: In IC50 Format DR5w11, Table VIII
Compound,"IC50 [1, 8] [nM]","IC50 [2, 9] [nM]","IC50 [3, 10] [nM]","IC50 [4, 11] [nM]","IC50 [5, 12] [nM]","IC50 [6, 13] [nM]","IC50 [7, 14] [nM]","IC50 [1, 15] [nM]","IC50 [2, 16] [nM]","IC50 [3, 17] [nM]","IC50 [4, 18] [nM]","IC50 [5, 19] [nM]","IC50 [6, 20] [nM]",IC50 ([7]; read-out: In IC50 Format DR7) [nM],further results
CC(C)C[C@H](NC(=O)[C@@H](NC(=O)[C@H](C)NC(=O)[C@H](C)NC(=O)[C@H](C)NC(=O)[C@H](CCCCN)NC(=O)[C@H](Cc1ccccc1)NC(=O)[C@H](C)NC(=O)[C@@H](C)N)[C@@H](C)O)C(=O)N[C@@H](CCCCN)C(=O)N[C@@H](C)C(=O)N[C@@H](C)C(=O)N[C@H](C)C(N)=O [Peptide 871.08] (H-[dA]AFKAAATLKAA[dA]-NH2),1.8,3.9,15000,1.9,10,9,111,,,,,,,,
CC(C)C[C@H](NC(=O)[C@@H](NC(=O)[C@H](C)NC(=O)[C@H](C)NC(=O)[C@H](CCCCN)NC(=O)[C@@H](NC(=O)[C@H](Cc1ccccc1)NC(=O)[C@H](CCCCN)NC(=O)[C@@H](C)N)C(C)C)[C@@H](C)O)C(=O)N[C@@H](CCCCN)C(=O)N[C@@H](C)C(=O)N[C@@H](C)C(=O)N[C@H](C)C(N)=O [Peptide 909.02] (H-[dA]KFVKAATLKAA[dA]-NH2),2.5,8,5660,4.7,33.3,5.7,208,,,,,,,,
DTVKLMYKGQPMTFRLLLV [Peptide 866.01],23,7.7,42900,176,10000,169,3570,,,,,,,,
DVFKELKVHHANENI [Peptide 519.00],,,,,,,,9.6,571,150000,40.9,250,118,463,
FFKNIVTPRFFKNIVTPR [Peptide 613.03],,,,,,,,200,188,75000,4500,2000,1670,272,
KIAKMEKASSVFNVVNS [Peptide 526.01],,,,,,,,35.7,3330,130000,187,1280,64.5,> 1250,
YAEFQAEKTLKAAS-NH2 [Peptide 717.05],,,,,,,,,,,,,,,"IC50 ([1]; read-out: DR1 nM (In IC50 Format), purified HLA DR1): 8.2 nM; IC50 ([2]; read-out: DR2w2B2 nM (In IC50 Format), purified HLA DR2w2β2): 339 nM; IC50 ([3]; read-out: DR3 nM (In IC50 Format), purified HLA DR3): 4000 nM; IC50 ([4]; read-out: DR4w4 nM (In IC50 Format), purified HLA DR4w4): 6.4 nM; IC50 ([5]; read-out: DR4w14 nM (In IC50 Format), purified HLA DR4w14): 29.4 nM; IC50 ([6]; read-out: DR5w11 nM (In IC50 Format), purified HLA DR5w11): 48.8 nM"
